From patent US20170121344A1 (Siga Technologies, Inc., priority 2009, published 2017)
Read-outs that look alike come from different tables or passages of the source.

Test system: Dengue-2 (Strain New Guinea C)
Experiment: Viral yield assay against Dengue-2 in Vero cells
Type: cell-based, Dengue virus
Details: Dengue virus
Outline: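 Infect Vero cells with virus (MOI 0.1), add compound or DMSO, incubate at 37° C, collect progeny at 48 hours post infection, then titrate on Vero cells to obtain EC50.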

[1] = Vero cells, MOI 0.1, harvested 48 hours post infection, read-out: Activity (EC50 class) against Dengue-2 Virus in Vero cells
[2] = Vero, 48 h, read-out: Activity (EC50 class) against Dengue-2 Virus in Vero cells
[3] = DENV2, viral yield assay, Vero cells, MOI 0.1, 48 hours post infection, read-out: Activity (EC50 in μM) DENV-2
[4] = DENV2, Vero, 48 h, read-out: Activity (EC50 in μM) DENV-2

Row | SMILES | EC50 [1] | further results
1 | CN1CCc2nc3sc(C(=O)Nc4c(F)cccc4F)c(N)c3cc2C1 [Compound 277, 3-Amino-6-methyl-5,6,7,8-tetrahydro-thieno[2,3-b][1,6]naphthyridine-2-carboxylic acid (2,6-difluoro-phenyl)-amide] | > 25 µM | 
2 | Nc1c(C(=O)Nc2ccccc2F)sc2nc3c(cc12)CCC3 [Compound 180, 3-Amino-6,7-dihydro-5H-cyclopenta[b]thieno[3,2-e]pyridine-2-carboxylic acid (2-fluoro-phenyl)-amide] |  | EC50 [2]: > 25 µM
3 | COc1cccc(-c2ccc3c(N)c(C(=O)Nc4cc(F)ccc4C)sc3n2)c1 [Compound 565, 3-amino-N-(5-fluoro-2-methyl-phenyl)-6-(3-methoxyphenyl)thieno[2,3-b] pyridine-2-carboxamide] |  | EC50 [3]: < 5 µM
4 | Cc1cc(NC(=O)c2sc3nc4c(c(-c5cccs5)c3c2N)CN(C)CC4)no1 [Compound 103, 3-Amino-6-methyl-4-thiophen-2-yl-5,6,7,8-tetrahydro-thieno[2,3-b][1,6]naphthyridine-2-carboxylic acid (5-methyl-isoxazol-3-yl)amide] | 5 to 25 µM | 
5 | Nc1c(C(=O)Nc2ccc([N+](=O)[O-])cc2)sc2nc3c(cc12)CCCC3 [Compound 228, 3-Amino-5,6,7,8-tetrahydro-thieno[2,3-b]quinoline-2-carboxylic acid (4-nitro-phenyl)-amide] | > 25 µM | 
6 | Cc1cc(C)c2c(N)c(C(=O)N3CCOCC3)sc2n1 [Compound 145, (3-Amino-4,6-dimethyl-thieno[2,3-b]pyridin-2-yl)-morpholin-4-yl-methanone] | > 25 µM | 
7 | CC(NC(=O)c1sc2nc3c(cc2c1N)CN(C)CC3)[C@]12C[C@H]3C[C@H](C[C@H](C3)C1)C2 (stereo partly drawn) [Compound 47, 3-Amino-6-methyl-5,6,7,8-tetrahydro-thieno[2,3-b][1,6]naphthyridine-2-carboxylic acid (1-adamantan-1-yl-ethyl)-amide] | < 5 µM | 
8 | CN1CCc2nc3sc(C(=O)Nc4cccc(C(F)(F)F)c4)c(N)c3cc2C1 [Compound 280, 3-Amino-6-methyl-5,6,7,8-tetrahydro-thieno[2,3-b][1,6]naphthyridine-2-carboxylic acid (3-trifluoromethyl-phenyl)-amide] | > 25 µM | 
9 | COc1ccc(CNC(=O)c2sc3nc4c(c(C(F)(F)F)c3c2N)CN(C(C)=O)CC4)cc1 [Compound 262, 6-Acetyl-3-amino-4-trifluoromethyl-5,6,7,8-tetrahydro-thieno[2,3-b][1,6]naphthyridine-2-carboxylic acid 4-methoxy-benzylamide] |  | EC50 [2]: > 25 µM
10 | Nc1c(C(=O)Nc2cccc(Br)c2)sc2nc(-c3ccncc3)ccc12 [Compound 481, 3-amino-N-(3-bromophenyl)-6-(4-pyridyl)thieno[2,3-b]pyridine-2-carboxamide] |  | EC50 [3]: 5 to 25 µM
11 | COc1cccc(-c2ccc3c(N)c(C(=O)Nc4cc(F)ccc4F)sc3n2)c1 [Compound 516, 3-amino-N-(2,5-difluorophenyl)-6-(3-methoxyphenyl)thieno[2,3-b]pyridine-2-carboxamide] |  | EC50 [3]: < 5 µM
12 | NC(=O)c1sc2nc(C3CC3)cc(-c3ccccc3)c2c1N [Compound 8, 3-Amino-6-cyclopropyl-4-phenyl-thieno[2,3-b]pyridine-2-carboxylic acid amide] | < 5 µM | 
13 | Cc1ccc(NC(=O)c2sc3nc(C)cc(C(F)(F)F)c3c2N)nc1 [Compound 132, 3-Amino-6-methyl-4-trifluoromethyl-thieno[2,3-b]pyridine-2-carboxylic acid (5-methyl-pyridin-2-yl)-amide] | > 25 µM | 
14 | COc1ccc(-c2c(C#N)c(N)nc3sc(C(N)=O)c(N)c23)cc1OC [Compound 170, 3,6-Diamino-5-cyano-4-(3,4-dimethoxy-phenyl)-thieno[2,3-b]pyridine-2-carboxylic acid amide] |  | EC50 [2]: > 25 µM
15 | COCc1cc(C)nc2sc(C(=O)Nc3ccccc3)c(N)c12 [Compound 124, 3-Amino-4-methoxymethyl-6-methyl-thieno[2,3-b]pyridine-2-carboxylic acid phenylamide] | > 25 µM | 
16 | Nc1c(C(=O)Nc2nnc(-c3ccccc3)s2)sc2nc3c(cc12)CCC3 [Compound 88, 3-Amino-6,7-dihydro-5H-cyclopenta[b]thieno[3,2-e]pyridine-2-carboxylic acid (5-phenyl-[1,3,4]thiadiazol-2-yl)-amide] | 5 to 25 µM | 
17 | CCOc1cccc(NC(=O)c2sc3nc4c(cc3c2N)CN(C)CC4)c1 [Compound 108, 3-Amino-6-methyl-5,6,7,8-tetrahydro-thieno[2,3-b][1,6]naphthyridine-2-carboxylic acid (3-ethoxy-phenyl)-amide] | 5 to 25 µM | 
18 | Nc1c(C(=O)Nc2ccc(S(N)(=O)=O)cc2)sc2nc3c(cc12)CCC3 [Compound 144, 3-Amino-6,7-dihydro-5H-cyclopenta[b]thieno[3,2-e]pyridine-2-carboxylic acid (4-sulfamoyl-phenyl)-amide] | > 25 µM | 

Row | SMILES | EC50 [1] | further results
19 | COc1cccc(-c2ccc3c(N)c(C(=O)Nc4ccc(C)cc4C)sc3n2)c1 [Compound 554, 3-amino-N-(2,4-dimethylphenyl)-6-(3-methoxyphenyl)thieno[2,3-b]pyridine-2-carboxamide] |  | EC50 [3]: < 5 µM
20 | Nc1c(C(=O)Nc2cccc(C(F)(F)F)c2)sc2nc3c(cc12)C(=O)CCC3 [Compound 12, 3-Amino-5-oxo-5,6,7,8-tetrahydro-thieno[2,3-b]quinoline-2-carboxylic acid (3-trifluoromethyl-phenyl)-amide] |  | EC50 [2]: < 5 µM
21 | NC(=O)c1sc2nc3c(c(-c4ccco4)c2c1N)CCCC3 [Compound 11, 3-Amino-4-furan-2-yl-5,6,7,8-tetrahydro-thieno[2,3-b]quinoline-2-carboxylic acid amide] | < 5 µM | 
22 | Cc1ccc(-c2ccc3c(N)c(C(=O)Nc4ccccc4[N+](=O)[O-])sc3n2)cc1 [Compound 639, 3-amino-N-(2-nitrophenyl)-6-(p-tolyl) thieno[2,3-b]pyridine-2-carboxamide] |  | EC50 [3]: < 5 µM
23 | COc1cccc(-c2ccc3c(N)c(C(=O)N(CCC(=O)O)c4ccc(OC(F)(F)F)cc4)sc3n2)c1 [Compound 354, 3-[N-[3-amino-6-(3-methoxy-phenyl)thieno[2,3-b]pyridine-2-carbonyl]-4-(tri-fluoro-methoxy)anili-no]propanoic acid] |  | EC50 [3]: 5 to 25 µM
24 | Cc1ccc(-c2c3c(nc4sc(C(N)=O)c(N)c24)CCCC3)cc1 [Compound 227, 3-Amino-4-p-tolyl-5,6,7,8-tetrahydro-thieno[2,3-b]quinoline-2-carboxylic acid amide] | > 25 µM | 
25 | CC1(C)Cc2c(c(N3CCOCC3)nc3sc(C(=O)N4CCOCC4)c(N)c23)CO1 [Compound 234, (1-Amino-8,8-dimethyl-5-morpholin-4-yl-8,9-dihydro-6H-7-oxa-3-thia-4-aza-cyclopenta[a]naphthalen-2-yl)-morpholin-4-yl-methanone] | > 25 µM | 
26 | CC(C)(C)NC(=O)c1sc2nc3c(cc2c1N)CCCCC3 [Compound 283, 3-amino-N-(tert-butyl)-6,7,8,9-tetrahydro-5H-cyclohepta[b]thieno [3,2-c]pyridine-2-carboxamide] |  | EC50 [3]: < 5 µM
27 | COc1ccc(NC(=O)c2sc3nc(C)cc(C(F)(F)F)c3c2N)cc1 [Compound 162, 3-Amino-6-methyl-4-trifluoromethyl-thieno[2,3-b]pyridine-2-carboxylic acid (4-methoxy-phenyl)-amide] | > 25 µM | 
28 | N#Cc1cc2c(N)c(C(=O)Nc3ccc(Cl)c(Cl)c3)sc2nc1N [Compound 129, 3,6-Diamino-5-cyano-thieno[2,3-b]pyridine-2-carboxylic acid (3,4-dichloro-phenyl)-amide] | > 25 µM | 
29 | Cc1cc(F)ccc1NC(=O)c1sc2nc3c(cc2c1N)CN(C)CC3 [Compound 265, 3-Amino-6-methyl-5,6,7,8-tetrahydro-thieno[2,3-b][1,6]naphthyridine-2-carboxylic acid (4-fluoro-2-methyl-phenyl)-amide] | > 25 µM | 
30 | COc1cccc(-c2ccc3c(N)c(C(=O)Nc4cccc(Cl)c4Cl)sc3n2)c1 [Compound 563, 3-amino-N-(2,3-dichlorophenyl)-6-(3-methoxypnenyl)thieno[2,3-b]pyridine-2-carboxamide] |  | EC50 [3]: < 5 µM
31 | Nc1c(C(=O)Nc2ccccc2F)sc2nc3c(cc12)CCCC3 [Compound 78, 3-Amino-5,6,7,8-tetrahydro-thieno[2,3-b]quinoline-2-carboxylic acid (2-fluoro-phenyl)-amide] |  | EC50 [2]: 5 to 25 µM
32 | Cc1cccc(NC(=O)c2sc3nc(-c4cccs4)ccc3c2N)c1 [Compound 419, 3-amino-N-(m-tolyl)-6-(2-thienyl) thieno[2,3-b]pyridine-2-carboxamide] |  | EC50 [4]: < 5 µM
33 | CN1CCc2nc3sc(C(=O)NCCc4c[nH]c5ccccc45)c(N)c3cc2C1 [Compound 32, 3-Amino-6-methyl-5,6,7,8-tetrahydro-thieno[2,3-b][1,6]naphthyridine-2-carboxylic acid [2-(1H-indol-3-yl)-ethyl]-amide] | < 5 µM | 
34 | CCOc1cccc(NC(=O)c2sc3nc(-c4ccc(OC)c(OC)c4)ccc3c2N)c1 [Compound 582, 3-amino-6-(3,4-dimethoxyphenyl)-N-(3-ethoxyphenyl)thieno[2,3-b]pyridine-2-carboxamide] |  | EC50 [4]: < 5 µM
35 | CCOc1ccccc1NC(=O)c1sc2nc(-c3cccc(OC)c3)ccc2c1N [Compound 501, 3-amino-N-(2-ethoxyphenyl)-6-(3-methoxyphenyl)thieno[2,3-b]pyridine-2-carboxamide] |  | EC50 [3]: < 5 µM
36 | Nc1c(C(=O)Nc2ccc(Cl)c(C(F)(F)F)c2)sc2nc(-c3cccs3)ccc12 [Compound 443, 3-amino-N-[4-chloro-3-(trifluoromethyl)phenyl]-6-(2-thienyl) thieno[2,3-b]pyridine-2-carboxamide] |  | EC50 [3]: < 5 µM
